# Test results taken from patent US12419305B2, “Antimicrobial compositions” (Firmenich SA, priority 2018, dated 2025).
# Read-outs that look alike come from different tables or passages of the source.
# What was measured:
# [1] = test system: S. aureus ATCC 6538; experiment: BCT test (bacterial contact time), 60 s, log reduction / effect fraction; CI by Compusyn; format: cell-based, Staphylococcus aureus; conditions: Staphylococcus aureus, ATCC6538, 1 min, 60 s, in 25% EtOH
# How it was run: (§1)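 Ethanol solutions of ingredient blends and single ingredients, 5 replicates; bacteria ~1×10^8/mL added 1:1; contact 45 or 60 s as listed; three 1:10 then 17 1:2 dilutions; regrowth 37° C, OD600; viable log CFU → log reduction vs ethanol. CI <0.9 = synergy.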
# [2] = test system: S. haemolyticus 114126; experiment: BCT test (bacterial contact time), 120 s, log reduction / effect fraction; CI by Compusyn; format: cell-based; conditions: Staphylococcus haemolyticus, 114126, 2 min, contact 120 s, 25% EtOH; for log reduction at 0.1 % strength: dose 0.1% w/v
# How it was run: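 S. haemolyticus 114126 (skin isolate), grown to OD600 1-2 in BHI-TW80 and resuspended at 1-5×10^8 CFU/mL, was mixed 1:1 with ethanolic perfume compositions or ethanol alone for 45, 60 or 120 s. Viable counts came from serial-dilution regrowth (37 °C, turbidity OD600), giving log reduction versus ethanol control; CI was computed from concentration–effect fraction pairs.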
# [3] = test system: E. coli ATCC 10536; experiment: BCT test (bacterial contact time), 45 s, log reduction / effect fraction; CI by Compusyn; format: cell-based, Escherichia coli
# How it was run: as §1
# [4] = test system: Salmonella enterica ATCC 10708; experiment: BCT test (bacterial contact time), 60 s, log reduction / effect fraction; CI by Compusyn; format: cell-based; conditions: Salmonella enterica, ATCC10708, 1 min, BCT 60 s, in 25% EtOH
# How it was run: as §1
# [5] = test system: Pseudomonas aeruginosa ATCC 15442; experiment: as above; format: cell-based; conditions: Pseudomonas aeruginosa, ATCC15442, 1 min, BCT 60 s, in 25% EtOH; for log reduction at 0.125 % strength: Dose 0.125 % w/v
# How it was run: as §1
smiles,measurement,setting,value
"CC1=CCC(C(C)(C)O)CC1 (centres unmarked) [Terpineol Ord, 2-(4-Methylcyclohex-3-en-1-yl)propan-2-ol]",log reduction at 0.125 % strength,[1]; dose 0.125 % w/v,0.8
same,log reduction at 0.15 % strength,"[1]; dose 0.150 % w/v, read-out: Log reduction",2.8
same,log reduction at 0.175 % strength,"[1]; dose 0.175 % w/v, read-out: Log reduction",4.8
same,log reduction at 0.2 % strength,"[1]; dose 0.200 % w/v, read-out: Log reduction",6.2
same,log reduction at 0.25 % strength,"[1]; dose 0.250 % w/v, read-out: Log reduction",7.3
same,log reduction at 0.1 % strength,[2],-0.1
same,log reduction at 0.2 % strength,[2]; dose 0.2% w/v,1.9
same,log reduction at 0.25 % strength,"[2]; dose 0.25% w/v, read-out: Log reduction",5.8
same,log reduction at 0.3 % strength,"[2]; dose 0.3% w/v, read-out: Log reduction",7.4
same,log reduction at 0.4 % strength,"[2]; dose 0.4% w/v, read-out: Log reduction",7.4
same,log reduction at 0.1 % strength,"[3]; Escherichia coli, ATCC10536, 45 s, dose 0.100 % w/v, 45 s, in 20% EtOH, read-out: Log reduction",0.1
same,log reduction at 0.11 % strength,"[3]; Escherichia coli, ATCC10536, 45 s, dose 0.110 % w/v, 45 s, in 20% EtOH",0.3
same,log reduction at 0.125 % strength,"[3]; Escherichia coli, ATCC10536, 45 s, dose 0.125 % w/v, 45 s, in 20% EtOH",1.3
same,log reduction at 0.15 % strength,"[3]; Escherichia coli, ATCC10536, 45 s, dose 0.150 % w/v, 45 s, in 20% EtOH",3.8
same,log reduction at 0.2 % strength,"[3]; Escherichia coli, ATCC10536, 45 s, dose 0.200 % w/v, 45 s, in 20% EtOH",7.4
same,log reduction at 0.1 % strength,"[4]; Dose 0.1 % w/v, read-out: Log reduction",0.8
same,log reduction at 0.1 % strength,"[4]; Dose 0.10 % w/v, read-out: Log reduction",5.4
same,log reduction at 0.1375 % strength,[4]; Dose 0.1375 % w/v,7.7
same,log reduction at 0.15 % strength,[4]; Dose 0.15 % w/v,7.7
same,log reduction at 0.125 % strength,[5],4.4
same,log reduction at 0.135 % strength,[5]; Dose 0.135 % w/v,4.3
same,log reduction at 0.15 % strength,[5]; Dose 0.15 % w/v,6.6
same,log reduction at 0.2 % strength,"[5]; Dose 0.2 % w/v, read-out: Log reduction",7.6
"CCC(C)(O)CCCC(C)C (centres unmarked) [Tetralinol, 3,7-Dimethyl-3-octanol]",log reduction at 0.0375 % strength,[1]; dose 0.0375 % w/v,1.3
same,log reduction at 0.05 % strength,[1]; dose 0.050 % w/v,5.5
same,log reduction at 0.075 % strength,[1]; dose 0.075 % w/v,7.3
same,log reduction at 0.1 % strength,[1]; dose 0.100 % w/v,7.5
same,log reduction at 0.075 % strength,[2]; dose 0.075% w/v,1.2
same,log reduction at 0.1 % strength,[2],5
same,log reduction at 0.125 % strength,[2]; dose 0.125% w/v,7.3
same,log reduction at 0.15 % strength,[2]; dose 0.15% w/v,7.1
same,log reduction at 0.02 % strength,"[3]; Escherichia coli, ATCC10536, 45 s, dose 0.02 % w/v, 45 s, in 20% EtOH",0.1
same,log reduction at 0.025 % strength,"[3]; Escherichia coli, ATCC10536, 45 s, dose 0.025 % w/v, 45 s, in 20% EtOH",0.6
same,log reduction at 0.025 % strength,"[3]; Escherichia coli, ATCC10536, 45 s, dose 0.025% w/v, contact 45 s, 20% EtOH",0.7
same,log reduction at 0.03 % strength,"[3]; Escherichia coli, ATCC10536, 45 s, dose 0.030 % w/v, 45 s, in 20% EtOH",1.4
same,log reduction at 0.03 % strength,"[3]; Escherichia coli, ATCC10536, 45 s, dose 0.03% w/v, contact 45 s, 20% EtOH",2
same,log reduction at 0.035 % strength,"[3]; Escherichia coli, ATCC10536, 45 s, dose 0.035 % w/v, 45 s, in 20% EtOH",5
same,log reduction at 0.035 % strength,"[3]; Escherichia coli, ATCC10536, 45 s, dose 0.035% w/v, contact 45 s, 20% EtOH",5.9
same,log reduction at 0.04 % strength,"[3]; Escherichia coli, ATCC10536, 45 s, dose 0.04% w/v, contact 45 s, 20% EtOH",7
same,Log reduction,"[3]; dose 0.025 % w/v, 45 s, in 20% EtOH",0.6
same,log reduction at 0.04 % strength,[4]; Dose 0.04 % w/v,5.3
same,log reduction at 0.05 % strength,"[4]; Dose 0.05 % w/v, read-out: Log reduction",6.2
same,log reduction at 0.025 % strength,[5]; Dose 0.025 % w/v,1.2
same,log reduction at 0.05 % strength,[5]; Dose 0.05 % w/v,3.2
same,log reduction at 0.075 % strength,[5]; Dose 0.075 % w/v,3.9
same,log reduction at 0.1 % strength,[5]; Dose 0.1 % w/v,7.1
same,log reduction at 0.125 % strength,[5],7.1
